Measurements from the supplement of paper PMC10920090.

Assays:
MDA-MB-231 [1] = assay: drug sensitivity score (DSS), cytotoxicity CellTox Green; higher = more cytotoxic; extreme values may be limits of the assay; details: 72 h
MDA-MB-231 [2] = assay: drug sensitivity score (DSS), cell viability CellTiter-Glo; higher = more sensitive; extreme values may be limits of the assay; details: 72 h
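For drug sensitivity score (DSS), cytotoxicity CellTox Green in this document: DSS summarises each dose–response curve by combining IC50, EC50, maximal inhibition and efficacy across drug concentrations.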

SMILES | drug sensitivity score (MDA-MB-231 [1]; shRNA: shPPFIA1_1) | drug sensitivity score (MDA-MB-231 [1]; shRNA: shScramble) | drug sensitivity score (MDA-MB-231 [2]; shRNA: shPPFIA1_1) | drug sensitivity score (MDA-MB-231 [2]; shRNA: shScramble)
O=C(Nc1ccc(OC(F)(F)F)cc1)c1sccc1NCc1ccnc2ccccc12 [OSI-930] | 0 DSS | 0.9 DSS | 4.5 DSS | 8 DSS
CN1CCN(CCOc2cc(OC3CCOCC3)c3c(Nc4c(Cl)ccc5c4OCO5)ncnc3c2)CC1 [Saracatinib] | 2.5 DSS | 1.3 DSS | 2.9 DSS | 2.7 DSS
NC(=S)N/N=C/c1ncccc1N [Triapine] | 0 DSS | 0 DSS | 0 DSS | 1.2 DSS
CNC(=O)[C@@H](NC(=O)[C@H](CC(C)C)[C@H](O)C(=O)NO)C(C)(C)C [Marimastat] | 0 DSS | 0 DSS | 0.2 DSS | 0 DSS
O=NN(CCCl)C(=O)NCCCl [Carmustine] | 0 DSS | 0 DSS | 0 DSS | 0 DSS
N[C@@H]1CCCN(c2c(/C=C3\SC(=O)NC3=O)cccc2-c2ccccc2)C1 [AZD1208] | 0 DSS | 0 DSS | 0 DSS | 0 DSS
COc1cc2ncnc(Nc3ccc(F)c(Cl)c3)c2cc1NC(=O)/C=C/CN1CCCCC1 [Dacomitinib] | 0 DSS | 4.7 DSS | 0.9 DSS | 0 DSS
O=C(c1ccc(OCCN2CCCCC2)cc1)c1c(-c2ccc(O)cc2)sc2cc(O)ccc12 [Raloxifene] | 0.4 DSS | 0 DSS | 3.5 DSS | 3.1 DSS
COc1cccc2cc(-c3nc([C@H]4CC[C@H](C(=O)O)CC4)n4ncnc(N)c34)[nH]c12 [OSI-027] | 0 DSS | 0 DSS | 0 DSS | 2.9 DSS
CCN1CCN(Cc2ccc(-c3cc4c(N[C@H](C)c5ccccc5)ncnc4[nH]3)cc2)CC1 [NVP-AEE788] | 0 DSS | 0 DSS | 0.4 DSS | 0.8 DSS
O=c1sn(-c2cccc3ccccc23)c(=O)n1Cc1ccccc1 [Tideglusib] | 0 DSS | 0 DSS | 0 DSS | 0 DSS
O=C(Nc1cccnc1)N1CCC(Cc2cccc(Oc3ccc(C(F)(F)F)cn3)c2)CC1 [PF-3845] | 4 DSS | 0.3 DSS | 4.3 DSS | 4 DSS
C[C@@H](Oc1cc(-c2cnn(C3CCNCC3)c2)cnc1N)c1c(Cl)ccc(F)c1Cl [Crizotinib] | 0 DSS | 0 DSS | 0.1 DSS | 0 DSS
Cc1cccc(-c2[nH]c(CNc3ccccc3F)nc2-c2ccc3ncnn3c2)n1 [TEW-7197] | 0.9 DSS | 0 DSS | 9.1 DSS | 0 DSS
Cn1cc(C2=Nc3cc(NC(=O)C(N)C4CCCCC4)cc4c3C2=CNNC4=O)cn1 (stereo not given) | 3 DSS | 0.8 DSS | 7.8 DSS | 9.4 DSS
C[C@@H](Nc1cc(F)cc(F)c1)c1cc(C(=O)N(C)C)cc2c(=O)cc(N3CCOCC3)oc12 [AZD-8186] | 0 DSS | 0 DSS | 0 DSS | 1.7 DSS
Nc1ncnc2c1c(COc1cccc(Cl)c1)nn2C1CCOCC1 | 0 DSS | 0 DSS | 0 DSS | 1.2 DSS
c1ccc2c(CCNc3ccc(Nc4ccncc4)cc3)c[nH]c2c1 [Serdemetan] | 0 DSS | 0 DSS | 3 DSS | 0.7 DSS
CCS(=O)(=O)N1CCN(c2ccc(Nc3ncc(C(N)=O)c(NC4CC4)n3)cc2)CC1 [Cerdulatinib] | 0 DSS | 0 DSS | 0 DSS | 2.9 DSS
O=c1[nH]c(C2CCCN2)nc2c1oc1ccc(Cl)cc12 (stereo not given) | 0 DSS | 0 DSS | 0 DSS | 0 DSS
CN1CCc2c(c3ccccc3n2Cc2ccc(C(=O)NO)cc2)C1 [Tubastatin A] | 0.1 DSS | 0 DSS | 0 DSS | 1 DSS
COc1ccc(C2=N[C@@H](c3ccc(Cl)cc3)[C@@H](c3ccc(Cl)cc3)N2C(=O)N2CCNC(=O)C2)c(OC(C)C)c1 [Nutlin-3] | 0 DSS | 0 DSS | 0 DSS | 0 DSS

SMILES | drug sensitivity score (MDA-MB-231 [1]; shRNA: shPPFIA1_1) | drug sensitivity score (MDA-MB-231 [1]; shRNA: shScramble) | drug sensitivity score (MDA-MB-231 [2]; shRNA: shPPFIA1_1) | drug sensitivity score (MDA-MB-231 [2]; shRNA: shScramble)
COc1ccc(-c2ccc3c(N4CCOC[C@@H]4C)nc(N4CCOC[C@@H]4C)nc3n2)cc1CO [AZD8055] | 0 DSS | 0 DSS | 2.3 DSS | 9.6 DSS
C=CC(=O)Nc1cc(Nc2nccc(-c3cn(C)c4ccccc34)n2)c(OC)cc1N(C)CCN(C)C [Osimertinib] | 0 DSS | 0 DSS | 1.2 DSS | 3.9 DSS
C=CC(=O)Nc1cc2c(Nc3ccc(F)c(Cl)c3)ncnc2cc1OCCCN1CCOCC1 [Canertinib] | 3 DSS | 7.7 DSS | 2.8 DSS | 4.3 DSS
COCC1(CO)C(=O)C2CCN1CC2 (stereo not given) [APR-246] | 0 DSS | 0 DSS | 1.3 DSS | 0 DSS
O=C(c1cccc(Cl)c1F)N1CCN(Cc2cccc(Nc3nccs3)n2)CC1 [MK-8745] | 0.5 DSS | 0.3 DSS | 0.9 DSS | 0.3 DSS
C/C=C1\NC(=O)[C@H]2CSSCC/C=C/[C@H](CC(=O)N[C@H](C(C)C)C(=O)N2)OC(=O)[C@H](C(C)C)NC1=O [Romidepsin] | 33.6 DSS | 26.9 DSS | 20.5 DSS | 29 DSS
Nc1ncnc2c1nc(N)n2[C@@H]1O[C@H](CO)[C@@H](O)[C@H]1O [8-amino-adenosine] | 12.2 DSS | 13.8 DSS | 18.1 DSS | 22.8 DSS
C[C@H](Nc1ncnc2nc[nH]c12)c1cc2cccc(Cl)c2c(=O)n1-c1ccccc1 [Duvelisib] | 0 DSS | 3.3 DSS | 3 DSS | 0 DSS
Cn1nnc2c(C(N)=O)ncn2c1=O [Temozolomide] | 0 DSS | 0 DSS | 1.8 DSS | 2.6 DSS
Cc1[nH]c2ccccc2c1CCNCc1ccc(/C=C/C(=O)NO)cc1 [Panobinostat] | 11.6 DSS | 11.4 DSS | 10.9 DSS | 14 DSS
COC(=O)C[C@](O)(CCCC(C)(C)O)C(=O)O[C@@H]1C(OC)=C[C@]23CCCN2CCc2cc4c(cc2[C@H]13)OCO4 [Omacetaxine] | 11.8 DSS | 18.4 DSS | 11.2 DSS | 22.9 DSS
COc1c(OCCCN2CCOCC2)ccc2c1N=C(NC(=O)c1cnc(N)nc1)N1CCN=C21 [Copanlisib] | 10.2 DSS | 0 DSS | 0 DSS | 6.3 DSS
c1cc(CN2CCCNCCNCCCNCC2)ccc1CN1CCCNCCNCCCNCC1 [Plerixafor] | 0 DSS | 0 DSS | 0 DSS | 0 DSS
O=c1cc(N2CCOCC2)oc2c(-c3ccccc3)cccc12 | 0.1 DSS | 2.4 DSS | 1.7 DSS | 0 DSS
CNc1nc(-c2ccc3c(N)n[nH]c3c2)cc(N2C[C@@H](C(=O)NC3CCCCC3)CC[C@H]2C)n1 | 0 DSS | 0 DSS | 0 DSS | 3.6 DSS
CC[C@]1(O)C[C@H]2CN(CCc3c([nH]c4ccccc34)[C@@](C(=O)OC)(c3cc4c(cc3OC)N(C=O)[C@H]3[C@@](O)(C(=O)OC)[C@H](OC(C)=O)[C@]5(CC)C=CCN6CC[C@]43[C@@H]65)C2)C1 [Vincristine] | 4.9 DSS | 6 DSS | 0 DSS | 8.1 DSS
NC(=O)N1CCC(CC(=O)N2CCC([C@H]3c4ncc(Br)cc4CCc4cc(Cl)cc(Br)c43)CC2)CC1 [Lonafarnib] | 0 DSS | 0 DSS | 2.4 DSS | 3.1 DSS
NC(=O)c1cccc(-c2cccc(OC(=O)NC3CCCCC3)c2)c1 [URB597] | 0 DSS | 0 DSS | 0.2 DSS | 0 DSS
C[C@]12CC[C@@H]3c4ccc(OC(=O)N(CCCl)CCCl)cc4CC[C@H]3[C@@H]1CC[C@@H]2O [Estramustine] | 0 DSS | 0 DSS | 0 DSS | 0 DSS
CN(C)/N=N/c1[nH]cnc1C(N)=O [Dacarbazine] | 0 DSS | 0 DSS | 0 DSS | 0 DSS
C[C@]12CC[C@H](O)CC1=CC[C@@H]1[C@@H]2CC[C@]2(C)C(c3cccnc3)=CC[C@@H]12 [Abiraterone] | 0 DSS | 0 DSS | 0 DSS | 0.9 DSS
COc1ccc(-c2cc3c(C)nc(N)nc3n([C@H]3CC[C@H](OCCO)CC3)c2=O)cn1 | 1.1 DSS | 2.4 DSS | 0 DSS | 6.2 DSS

SMILES | drug sensitivity score (MDA-MB-231 [1]; shRNA: shPPFIA1_1) | drug sensitivity score (MDA-MB-231 [1]; shRNA: shScramble) | drug sensitivity score (MDA-MB-231 [2]; shRNA: shPPFIA1_1) | drug sensitivity score (MDA-MB-231 [2]; shRNA: shScramble)
COc1ccc(COc2cc3oc(=O)c4cc(C(C)O)ccc4c3cc2OC)cc1 (stereo not given) [Palomid-529] | 0 DSS | 0 DSS | 0 DSS | 0 DSS
Cc1nc(Nc2ncc(C(=O)Nc3c(C)cccc3Cl)s2)cc(N2CCN(CCO)CC2)n1 [Dasatinib] | 0 DSS | 0 DSS | 0 DSS | 9.3 DSS
CC1(COc2ccc3c(c2)ncn3-c2ccc3cccc(N4CCC(N)CC4)c3n2)COC1 [Crenolanib] | 7.2 DSS | 4.6 DSS | 5.3 DSS | 9.4 DSS
Nc1cccc2c1C(=O)N(C1CCC(=O)NC1=O)C2=O (stereo not given) [Pomalidomide] | 0 DSS | 0 DSS | 0 DSS | 0 DSS
CC(C)(C)c1cc(NC(=O)Nc2ccc(-c3cn4c(n3)sc3cc(OCCN5CCOCC5)ccc34)cc2)no1 [Quizartinib] | 0 DSS | 0 DSS | 0 DSS | 0 DSS
CN1CC[C@H](c2c(O)cc(O)c3c(=O)cc(-c4ccccc4Cl)oc23)[C@H](O)C1 [Alvocidib] | 11.9 DSS | 7.4 DSS | 10.6 DSS | 15.2 DSS
O=C(c1ccc(C(=O)N2CCC(N3CCCC3)CC2)c(Nc2ccccc2)c1)N1CCC(N2CCCC2)CC1 [UNC1215] | 0 DSS | 0 DSS | 0.4 DSS | 0.3 DSS
CCCCC/C=C/C=C1/C(=O)C=C[C@@H]1C/C=C\CCCC(=O)O [15D-PGJ2] | 0 DSS | 0 DSS | 0 DSS | 0 DSS
CO[C@H]1C[C@@H]2CC[C@@H](C)[C@@](O)(O2)C(=O)C(=O)N2CCCC[C@H]2C(=O)O[C@H]([C@H](C)C[C@@H]2CC[C@@H](OP(C)(C)=O)[C@H](OC)C2)CC(=O)[C@H](C)/C=C(\C)[C@@H](O)[C@@H](OC)C(=O)[C@H](C)C[C@H](C)/C=C/C=C/C=C/1C [Ridaforolimus] | 0 DSS | 0 DSS | 0 DSS | 1.6 DSS
CN(C)CCOc1ccc(/C(=C(/CCCl)c2ccccc2)c2ccccc2)cc1 [Toremifene] | 4.6 DSS | 1.8 DSS | 2.4 DSS | 1.3 DSS
COc1cccc(OCCCN)c1-c1cc(Nc2cnc(C#N)cn2)n[nH]1 [Prexasertib] | 21 DSS | 6.9 DSS | 13.2 DSS | 29.8 DSS
CO[C@H]1/C=C\C=C(/C)C(=O)NC2=CC(=O)C(NCCN(C)C)=C(C[C@@H](C)C[C@H](OC)[C@H](O)[C@@H](C)/C=C(\C)[C@@H]1OC(N)=O)C2=O [Alvespimycin] | 0 DSS | 0.6 DSS | 4.8 DSS | 7.2 DSS
CN(C)Cc1c(C(=O)NCCOc2ccc(C(=O)NO)cc2)oc2ccccc12 [Abexinostat] | 16.6 DSS | 10.4 DSS | 3.4 DSS | 12.2 DSS
N#Cc1ccc(COC[C@H]2O[C@@H](n3c(NCc4ccc(Cl)c(Cl)c4)nc4c(N)ncnc43)[C@H](O)[C@@H]2O)cc1 | 0 DSS | 0 DSS | 2.3 DSS | 1.7 DSS
Cc1ncc(-c2ccnc(Nc3ccc(S(C)(=O)=O)cc3)n2)n1C(C)C [AZD-5438] | 2.7 DSS | 0.5 DSS | 0.1 DSS | 2.3 DSS
CON(C)C(=O)N1N=C(c2cc(F)ccc2F)S[C@@]1(CCCN)c1ccccc1 [Filanesib] | 14.1 DSS | 9.3 DSS | 0 DSS | 8.4 DSS
C[C@@H](C(=O)O)c1ccc(-c2ccccc2)c(F)c1 [Tarenflurbil] | 0 DSS | 0 DSS | 0 DSS | 0 DSS
S=C(NCc1ccc2c(c1)OCO2)N1CCN(c2ncnc3c2oc2ccccc23)CC1 [Amuvatinib] | 5.5 DSS | 0 DSS | 0.6 DSS | 1.8 DSS
CCS(=O)(=O)c1cccc(-c2cc(C(=O)NC3CCN(C)CC3)c(C)c3[nH]c4ncc(C)cc4c23)c1 [TAK-901] | 0 DSS | 0 DSS | 0 DSS | 3.6 DSS
CNC(=O)c1cc(COc2nnc(Nc3ccc(Cl)cc3)c3ccoc23)ccn1 [Telatinib] | 0 DSS | 0 DSS | 0 DSS | 0 DSS
CN(C)C(=O)c1ccc(S(=O)(=O)c2ccc(NC(=O)[C@@](C)(O)C(F)(F)F)c(Cl)c2)cc1 [AZD7545] | 0 DSS | 0 DSS | 3.6 DSS | 0 DSS
